Assay results published in ChEMBL document CHEMBL1149836, “Antifungal metabolites from the plant endophytic fungus Pestalotiopsis foedan” (2008).

Key:
Format in all cases: functional
Candida albicans = assay: Antifungal activity against Candida albicans ATCC 10231 at 100 ug/ml after 48 hrs by agar diffusion assay; conditions: ATCC 10231, 48 h, read-out: IZ
Geotrichum candidum = assay: Antifungal activity against Geotrichum candidum AS2.498 at 100 ug/ml after 48 hrs by agar diffusion assay; conditions: read-out: IZ
Aspergillus fumigatus = assay: Antifungal activity against Aspergillus fumigatus ATCC 10894 at 100 ug/ml after 48 hrs by agar diffusion assay; conditions: ATCC 10894, 48 h, read-out: IZ

Row | SMILES | zone of inhibition at 100 µg/mL (Candida albicans) [mm] | zone of inhibition at 100 µg/mL (Geotrichum candidum) [mm] | zone of inhibition at 100 µg/mL (Aspergillus fumigatus) [mm]
1 | OC(Cn1cncn1)(Cn1cncn1)c1ccc(F)cc1F [FLUCONAZOLE] | 18 | 18 | 18
2 | C[C@H]1CCC[C@@]2(CC3=C(CO2)C(=O)[C@](C)(O)[C@@H](O)C3)O1 [PESTAFOLIDE A] | – | – | 10
3 | Cc1c(O)cc2c(c1O)C(=O)O[C@@H]2[C@H](C)O [PESTAPHTHALIDE A] | 13 | – | –
4 | Cc1c(O)cc2c(c1O)C(=O)O[C@H]2[C@H](C)O [PESTAPHTHALIDE B] | – | 11 | –
